According to article PMC6941952, “A homogeneous bioluminescent immunoassay to probe cellular signaling pathway regulation” (Communications Biology, 2020):
Several values for one entry are separate records, joined by “and”; a condition that tells them apart may be missing. Identical values can stand only once.

Tests used:
total IκBα = assay: NanoBiT cell-based immunoassay, total IκBα in human breast tumor epithelial cells; conditions: for IkB degradation (% compared to no IKK16), Average / IkB degradation (% compared to no IKK16) / Non-Treated/Treated / Raw data / Subtract reagent background: Breast tumor cells, TNF; for IkB degradation (% compared to no IKK16), Average: average of replicates; for IkB degradation (% compared to no IKK16) / Non-Treated/Treated / Raw data / Subtract reagent background: single replicates
Procedure: All cell lines used are from ATCC. […] Human Primary Mammary Epithelial Cells (#H-6035), Human Breast Tumor Epithelial Cells (#HC-6035), Complete Human Epithelial Cell Medium (#H6621), and Gelatin-Based Coating Solution (#H6950) were purchased from Cell Biologics. The cells were cultured according to the manufacturer’s procedure. All cells were grown at 37 °C in a 5% CO2 humidified incubator and passaged before reaching 80% cell confluency. Prior to each experiment, cells were counted by combining 30 µl of cell suspension with 30 µl of trypan blue. After gentle pipetting up and down to mix the cells and the dye, the cell number was determined using Bio-Rad TC 20 cell counter.
(§1) Prior to NanoBiT Cell-Based Immunoassay, 50,000 cells were seeded in 160 µl of complete growth media per well of a 96-well plate and incubated overnight. The cells were checked under microscope and it was determined that 50,000 cells per well in 96-well plate is under 90% confluency for all cells tested. If necessary, the cell culture media were replaced with serum-free media after the cells were stably adherent on the plate and incubated overnight. To treat cells with activators or inhibitors, medium was changed to 30 µl of medium containing inhibitors. If activation of a specific pathway is needed, the cells were stimulated with 10 µl of medium containing activators. To lyse the cells, 10 µl of lysis buffer containing 0.1% digitonin diluted in 1X immunoassay buffer with protease and phosphatase inhibitors was added and the plates were mixed vigorously for 20 min. Then, 50 µl of an antibody mix containing two primary antibodies against the target protein and NanoBiT detecting antibodies (0.3 µl each per well), diluted in 1X immunoassay buffer was added to the lysates. The plates were incubated at 23 °C for 90 min, followed by the addition of 25 µl of Nano-Glo® reagent consisting of Nano-Glo® Luciferase Assay Substrate mixed with 1X immunoassay buffer. Luminescence was measured using a plate-reading luminometer.
(§2) Single dose or dose response inhibitor treatments were performed prior to activation of the pathways as follows. For IκBα, the cells were treated in 30 µl medium with IKK16 or MG132 for 60 min before the addition of 10 µl of DMEM containing appropriate concentration of TNFα. To measure phosphorylation of AKT or STAT3, the corresponding NanoBiT immunoassays were developed with MCF-7 or A431 cells, respectively, according the same scheme used to develop the IκBα assay using the primary antibodies for AKT and STAT3 described in the reagents section. For the AKT assay, MCF-7 cells were incubated overnight in phenol-red free DMEM medium (Gibco #21063-029) without serum. Treatment with LY294002 was performed in 30 µl medium and cells were incubated for 60 min before the addition of 1 µM Insulin. To measure STAT3 phosphorylation, A431 cells were incubated overnight in DMEM medium without serum. […] After addition of the stimulators, the cells were incubated for additional times as follows. IκBα phosphorylation and degradation analyses required both time courses and single time points as described in figures. […] The NanoBiT immunoassay protocol was followed as described above.
(§3) All 96-well assay plates were read using a GloMax® 96 Microplate Luminometer from Promega. The instrument was set to 0.5 s integration time. In order to obtain net change of signal, the reagent background values (signal from the well containing all reagent except primary antibodies) were subtracted from the sample values. To plot and analyze the data, Microsoft Excel and GraphPad Prism® Software were used. IC50 values were determined by using a nonlinear regression fit to a sigmoidal dose response (variable slope).

NF-κB p65 Phospho-Ser536 = assay: NanoBiT cell-based immunoassay, phosphorylated p65 in MCF-7 cells; set-up: species or system human; conditions: for P-p65, Average: background subtracted, average of replicates; for P-p65, Raw data / P-p65, Subtract reagent background: single replicates
Procedure: as §1, §2, §3

SMILES: O=C(c1ccc(Nc2nccc(-c3cc4ccccc4s3)n2)cc1)N1CCC(N2CCCC2)CC1 [IKK16]
- IkB degradation (% compared to no IKK16), Average (total IκBα; IKK16 0.000762939 uM): 97.6%
- IkB degradation (% compared to no IKK16) (total IκBα; IKK16 0.000762939 uM): 92% and 104% and 97%
- Non-Treated/Treated (total IκBα; IKK16 0.000762939 uM): 3.423 and 4.061 and 3.878
- Raw data (total IκBα; IKK16 0.000762939 uM): 10940 and 10560 and 10750
- Subtract reagent background (total IκBα; IKK16 0.000762939 uM): 5493 and 5113 and 5303
- IkB degradation (% compared to no IKK16), Average (total IκBα; IKK16 0.00305176 uM): 98.3%
- IkB degradation (% compared to no IKK16) (total IκBα; IKK16 0.00305176 uM): 97% and 96% and 102%
- Non-Treated/Treated (total IκBα; IKK16 0.00305176 uM): 3.600 and 3.739 and 4.102
- Raw data (total IκBα; IKK16 0.00305176 uM): 10670 and 11000 and 10460
- Subtract reagent background (total IκBα; IKK16 0.00305176 uM): 5223 and 5553 and 5013
- IkB degradation (% compared to no IKK16), Average (total IκBα; IKK16 0.012207 uM): 95.1%
- IkB degradation (% compared to no IKK16) (total IκBα; IKK16 0.012207 uM): 98% and 99% and 88%
- Non-Treated/Treated (total IκBα; IKK16 0.012207 uM): 3.656 and 3.857 and 3.531
- Raw data (total IκBα; IKK16 0.012207 uM): 10590 and 10830 and 11270
- Subtract reagent background (total IκBα; IKK16 0.012207 uM): 5143 and 5383 and 5823
- IkB degradation (% compared to no IKK16), Average (total IκBα; IKK16 0.0488281 uM): 99.5%
- IkB degradation (% compared to no IKK16) (total IκBα; IKK16 0.0488281 uM): 95% and 97% and 106%
- Non-Treated/Treated (total IκBα; IKK16 0.0488281 uM): 3.552 and 3.780 and 4.255
- Raw data (total IκBα; IKK16 0.0488281 uM): 10740 and 10940 and 10280
- Subtract reagent background (total IκBα; IKK16 0.0488281 uM): 5293 and 5493 and 4833
- IkB degradation (% compared to no IKK16), Average (total IκBα; IKK16 0.195312 uM): 94.6%
- IkB degradation (% compared to no IKK16) (total IκBα; IKK16 0.195312 uM): 95% and 102% and 87%
- Non-Treated/Treated (total IκBα; IKK16 0.195312 uM): 3.532 and 3.953 and 3.507
- Raw data (total IκBα; IKK16 0.195312 uM): 10770 and 10700 and 11310
- Subtract reagent background (total IκBα; IKK16 0.195312 uM): 5323 and 5253 and 5863
- IkB degradation (% compared to no IKK16), Average (total IκBα; IKK16 0.78125 uM): 86.9%
- IkB degradation (% compared to no IKK16) (total IκBα; IKK16 0.78125 uM): 77% and 92% and 91%
- Non-Treated/Treated (total IκBα; IKK16 0.78125 uM): 2.883 and 3.584 and 3.657
- Raw data (total IκBα; IKK16 0.78125 uM): 11970 and 11240 and 11070
- Subtract reagent background (total IκBα; IKK16 0.78125 uM): 6523 and 5793 and 5623
- IkB degradation (% compared to no IKK16), Average (total IκBα; IKK16 3.125 uM): 49.5%
- IkB degradation (% compared to no IKK16) (total IκBα; IKK16 3.125 uM): 48% and 52% and 49%
- Non-Treated/Treated (total IκBα; IKK16 3.125 uM): 1.799 and 2.002 and 1.952
- Raw data (total IκBα; IKK16 3.125 uM): 15900 and 15820 and 15980
- Subtract reagent background (total IκBα; IKK16 3.125 uM): 10453 and 10373 and 10533
- IC50 (total IκBα; human primary breast tumor epithelial cells, pretreated 1 h, then TNFα 50 ng per ml 30 min, read-out: IC50, inhibition of TNFα induced degradation of IκBα): 1820 nM
- TNFα-increased phosphorylation of p65 on serine 536 (NF-κB p65 Phospho-Ser536; MCF-7 cells, 10 µM 1 h, TNFα 50 ng per ml 10 min): inhibited
- P-p65, Average (NF-κB p65 Phospho-Ser536; TNF + Ikk16): 4467
- P-p65, Raw data (NF-κB p65 Phospho-Ser536; TNF + Ikk16): 22920 and 23320 and 23680
- P-p65, Subtract reagent background (NF-κB p65 Phospho-Ser536; TNF + Ikk16): 4080 and 4480 and 4840
- P-p65, Average (NF-κB p65 Phospho-Ser536; substance alone): 3920
- P-p65, Raw data (NF-κB p65 Phospho-Ser536; substance alone): 22430 and 21780 and 21730
- P-p65, Subtract reagent background (NF-κB p65 Phospho-Ser536; substance alone): 4370 and 3720 and 3670
